Measured values reported in the CheMixHub viscosity set.
Where “and” joins values, the source holds several entries; their conditions need not be identical. Equal entries are not always repeated.

Experiment: xn = mol fraction of the nth substance listed

COCCOCCOC + COC(C)=O
viscosity [mPa·s], 101.33 kPa
Settings | x1 = 0.1 | x1 = 0.198 | x1 = 0.2969 | x1 = 0.4015 | x1 = 0.4988 | x1 = 0.5951 | x1 = 0.6954 | x1 = 0.7941 | x1 = 0.8973
298.15 K | 0.441 | 0.498 | 0.559 | 0.621 | 0.683 | 0.741 | 0.801 | 0.861 | 0.922
303.15 K | 0.418 | 0.47 | 0.526 | 0.582 | 0.639 | 0.691 | 0.746 | 0.799 | 0.855
308.15 K | 0.396 | 0.445 | 0.496 | 0.548 | 0.6 | 0.646 | 0.696 | 0.745 | 0.795
313.15 K | 0.376 | 0.418 | 0.469 | 0.516 | 0.564 | 0.607 | 0.652 | 0.697 | 0.741

ClC(Cl)C(Cl)Cl + COC(C)=O
303.15 K, 101.3 kPa
Settings | viscosity [mPa·s]
x2 = 0.103 | 1.379
x2 = 0.1999 | 1.268
x2 = 0.3012 | 1.147
x2 = 0.3998 | 1.029
x2 = 0.5031 | 0.8951
x2 = 0.6017 | 0.764
x2 = 0.6999 | 0.6464
x2 = 0.8014 | 0.5324
x2 = 0.9019 | 0.4308

CCCCCCN + COCCO
308.15 K, 101 kPa
Settings | viscosity [mPa·s]
x2 = 0.1567 | 0.8278
x2 = 0.2965 | 1.059
x2 = 0.4194 | 1.245
x2 = 0.5291 | 1.381
x2 = 0.6276 | 1.456
x2 = 0.7166 | 1.459
x2 = 0.7973 | 1.434
x2 = 0.8708 | 1.397
x2 = 0.9382 | 1.338

CNc1ccccc1 + CS(C)=O
303 K, 101.33 kPa
Settings | viscosity [mPa·s]
x1 = 0.101 | 1.844
x1 = 0.2001 | 1.861
x1 = 0.3007 | 1.939
x1 = 0.3986 | 2.046
x1 = 0.4987 | 2.03
x1 = 0.6003 | 2.106
x1 = 0.6987 | 2.12
x1 = 0.8007 | 2.057
x1 = 0.9015 | 1.911

Oc1ccccc1 + CS(C)=O
viscosity [mPa·s], 101 kPa
Settings | x2 = 0.2 | x2 = 0.3 | x2 = 0.4 | x2 = 0.5 | x2 = 0.6 | x2 = 0.7 | x2 = 0.8 | x2 = 0.9
298.15 K | 8.913 | 7.767 | 6.467 | 5.173 | 4.111 | 3.282 | 2.726 | 2.308
308.15 K | 5.87 | 5.328 | 4.618 | 3.826 | 3.127 | 2.579 | 2.192 | 1.902
318.15 K | 4.15 | 3.888 | 3.486 | 2.977 | 2.489 | 2.09 | 1.794 | 1.577

Oc1ccccc1 + C[N+](C)(C)CCO.[Cl-]
viscosity
Settings | 101 kPa | 101.33 kPa
293.15 K, x2 = 0.2 | – | 61.78 mPa·s
293.15 K, x2 = 0.25 | – | 72.04 mPa·s
293.15 K, x2 = 0.333 | 137.7 mPa·s | –
298.15 K, x1 = 0.7 | – | 122.5 mPa·s
298.15 K, x1 = 0.8 | – | 56.11 mPa·s and 39.28 mPa·s and 30.65 mPa·s
298.15 K, x1 = 0.9 | – | 26.18 mPa·s
298.15 K, x2 = 0.333 | 99.81 mPa·s | –
303.15 K, x2 = 0.2 | 36.55 mPa·s | 37.73 mPa·s
303.15 K, x2 = 0.25 | 41.2 mPa·s | 43.1 mPa·s
303.15 K, x2 = 0.333 | 75.03 mPa·s and 76.44 mPa·s | –
308.15 K, x2 = 0.333 | 57.85 mPa·s | –
313.15 K, x2 = 0.2 | 23.57 mPa·s | 24.63 mPa·s
313.15 K, x2 = 0.25 | 26.84 mPa·s | 27.84 mPa·s
313.15 K, x2 = 0.333 | 46.41 mPa·s and 45.29 mPa·s | –
318.15 K, x2 = 0.333 | 35.93 mPa·s | –
323.15 K, x2 = 0.2 | 16.21 mPa·s | 17.07 mPa·s
323.15 K, x2 = 0.25 | 18.62 mPa·s | 19.11 mPa·s
323.15 K, x2 = 0.333 | 30.68 mPa·s and 28.71 mPa·s | –

Oc1ccccc1 + Cc1cccc(O)c1
298.15 K, 101 kPa
Settings | viscosity [mPa·s]
x1 = 0.1259 | 12.5
x1 = 0.2449 | 11.69
x1 = 0.3137 | 11.31
x1 = 0.3848 | 10.95
x1 = 0.4502 | 10.7
x1 = 0.5174 | 10.4
x1 = 0.6352 | 9.961
x1 = 0.7325 | 9.698
x1 = 0.819 | 9.398
x1 = 0.8921 | 9.206
x1 = 0.9301 | 9.105

CC=CC(=O)O + Cc1ccccc1
viscosity [mPa·s], 101 kPa
Settings | 298.15 K | 303.15 K | 313.15 K | 323.15 K
x1 = 0.0503 | 0.5712 | 0.5371 | 0.4796 | 0.4317
x1 = 0.0975 | 0.5997 | 0.5609 | 0.4998 | 0.4502
x1 = 0.148 | 0.6218 | 0.5858 | 0.5213 | 0.4671

CCCCCCN + Cc1ccccc1
303.15 K, 101 kPa
Settings | viscosity [mPa·s]
x2 = 0.1238 | 0.6558
x2 = 0.2561 | 0.6124
x2 = 0.3598 | 0.5834
x2 = 0.4481 | 0.5588
x2 = 0.5709 | 0.5327
x2 = 0.6774 | 0.5177
x2 = 0.7639 | 0.5072
x2 = 0.8616 | 0.5035
x2 = 0.9319 | 0.5102

COCCOCCOC + ClC(Cl)(Cl)Cl
298.15 K, 101.33 kPa
Settings | viscosity [mPa·s]
x1 = 0.0934 | 0.965
x1 = 0.1967 | 0.995
x1 = 0.3018 | 1.023
x1 = 0.4053 | 1.044
x1 = 0.4892 | 1.059
x1 = 0.5352 | 1.06
x1 = 0.592 | 1.057
x1 = 0.6503 | 1.052
x1 = 0.6902 | 1.043
x1 = 0.7963 | 1.031
x1 = 0.8656 | 1.019
x1 = 0.9021 | 1.011
x1 = 0.9343 | 1.001

COCCOCCOC + ClC(Cl)Cl
298.15 K, 101.33 kPa
Settings | viscosity [mPa·s]
x1 = 0.0986 | 0.727
x1 = 0.2039 | 0.946
x1 = 0.2993 | 1.028
x1 = 0.3966 | 1.082
x1 = 0.4825 | 1.094
x1 = 0.5247 | 1.093
x1 = 0.5864 | 1.08
x1 = 0.6365 | 1.072
x1 = 0.7006 | 1.054
x1 = 0.7976 | 1.033
x1 = 0.8985 | 1.011
x1 = 0.9325 | 1.008

Oc1ccccc1 + Clc1ccccc1
293.15 K, 101 kPa
Settings | viscosity [mPa·s]
x1 = 0.0584 | 0.825
x1 = 0.115 | 0.888
x1 = 0.2493 | 1.122
x1 = 0.3435 | 1.274
x1 = 0.4323 | 1.673
x1 = 0.5436 | 2.218
x1 = 0.6243 | 2.748
x1 = 0.7492 | 4.07
x1 = 0.84 | 5.555

Oc1ccccc1 + Nc1ccccc1
101 kPa
Settings | viscosity [mPa·s]
293.15 K, x1 = 0.0786 | 5.09
293.15 K, x1 = 0.1517 | 6.1
293.15 K, x1 = 0.2315 | 7.35
293.15 K, x1 = 0.3105 | 8.89
293.15 K, x1 = 0.3914 | 10.59
293.15 K, x1 = 0.473 | 12.15
293.15 K, x1 = 0.5355 | 13.2
293.15 K, x1 = 0.6225 | 14.18
293.15 K, x1 = 0.693 | 14.47
293.15 K, x1 = 0.7683 | 14.21
293.15 K, x1 = 0.8489 | 13.31
293.15 K, x1 = 0.922 | 12.21
303.15 K, x1 = 0.0741 | 3.66
303.15 K, x1 = 0.1582 | 4.34
303.15 K, x1 = 0.2314 | 5.07
303.15 K, x1 = 0.3142 | 5.95
303.15 K, x1 = 0.3889 | 6.85
303.15 K, x1 = 0.4691 | 7.7
303.15 K, x1 = 0.5374 | 8.36
303.15 K, x1 = 0.6159 | 8.89
303.15 K, x1 = 0.6906 | 9.07
303.15 K, x1 = 0.7667 | 8.89
303.15 K, x1 = 0.8466 | 8.34
303.15 K, x1 = 0.9243 | 7.68
308.1 K, x1 = 0.349 | 5.39
308.1 K, x1 = 0.511 | 6.54
308.1 K, x1 = 0.677 | 7.21
308.1 K, x1 = 0.795 | 6.92
313.15 K, x1 = 0.0741 | 2.74
313.15 K, x1 = 0.1582 | 3.15
313.15 K, x1 = 0.2314 | 3.61
313.15 K, x1 = 0.3142 | 4.1
313.15 K, x1 = 0.3889 | 4.61
313.15 K, x1 = 0.4691 | 5.1
313.15 K, x1 = 0.5374 | 5.45
313.15 K, x1 = 0.6159 | 5.73
313.15 K, x1 = 0.6906 | 5.83
313.15 K, x1 = 0.7667 | 5.73
313.15 K, x1 = 0.8466 | 5.46
313.15 K, x1 = 0.9243 | 5.11
